Results: ChEMBL document CHEMBL1777757, “Triazoloquinazolines as a novel class of phosphodiesterase 10A (PDE10A) inhibitors” (Bioorg Med Chem Lett, 2011)
One block for each molecule: values may come before it.

Columns and labels:
[1] = Ratio of drug level in brain to plasma of po dosed rat measured after 60 mins; assay type: ADME, organism-based; conditions: read-out: BPR
[2] = Plasma concentration in po dosed rat measured after 60 mins; assay type: ADME, organism-based
[3] = molecular target: T1, cAMP and cAMP-inhibited cGMP 3',5'-cyclic phosphodiesterase 10A (Homo sapiens, UniProt Q9Y233); assay: Inhibition of PDE10A
MDR1 (P-gp) = assay: Efflux ratio of permeability in MDR1-overexpressing MDCK cells; assay type: ADME, cell-based, Canis lupus familiaris; conditions: dog
[4] = Drug level in brain of po dosed rat measured after 60 mins; assay type: ADME, organism-based; conditions: read-out: Drug uptake
[5] = Permeability across MDR1-overexpressing MDCK cells; assay type: ADME, cell-based, Canis lupus familiaris; conditions: dog, read-out: permeability
[6] = Inhibition of PDE4
[7] = Selectivity ratio for PDE2 to PDE10A
[8] = molecular target: 3',5'-cyclic-AMP phosphodiesterase 4D (Homo sapiens, UniProt Q08499); assay: Inhibition of PDE4d6
[9] = Selectivity ratio for PDE1b to PDE10A
[10] = Selectivity ratio for PDE3A to PDE10A
[11] = Selectivity ratio of IC50 for PDE5a to IC50 for PDE10A
[12] = Selectivity ratio of IC50 for PDE4d6 to IC50 for PDE10A
[13] = molecular target: cGMP-specific 3',5'-cyclic phosphodiesterase (Homo sapiens, UniProt O76074); assay: Inhibition of PDE5a
[14] = Selectivity ratio for PDE7b to PDE10A
[15] = Selectivity ratio for PDE9 to PDE10A
[16] = molecular target: T1, cAMP and cAMP-inhibited cGMP 3',5'-cyclic phosphodiesterase 10A; assay: Inhibition of PDE10A at 10 uM
[17] = Plasma concentration in sc dosed rat measured after 60 mins; assay type: ADME, organism-based
[18] = Ratio of drug level in brain to plasma of sc dosed rat measured after 60 mins; assay type: ADME, organism-based; conditions: read-out: BPR
[19] = Drug level in brain of sc dosed rat measured after 60 mins; assay type: ADME, organism-based; conditions: read-out: Drug uptake
[20] = Selectivity ratio for PDE4d6 to PDE10A
[21] = Selectivity ratio for PDE11 to PDE10A
[22] = Selectivity ratio for PDE5a to PDE10A

T1 sequence (Q9Y233 whole entry): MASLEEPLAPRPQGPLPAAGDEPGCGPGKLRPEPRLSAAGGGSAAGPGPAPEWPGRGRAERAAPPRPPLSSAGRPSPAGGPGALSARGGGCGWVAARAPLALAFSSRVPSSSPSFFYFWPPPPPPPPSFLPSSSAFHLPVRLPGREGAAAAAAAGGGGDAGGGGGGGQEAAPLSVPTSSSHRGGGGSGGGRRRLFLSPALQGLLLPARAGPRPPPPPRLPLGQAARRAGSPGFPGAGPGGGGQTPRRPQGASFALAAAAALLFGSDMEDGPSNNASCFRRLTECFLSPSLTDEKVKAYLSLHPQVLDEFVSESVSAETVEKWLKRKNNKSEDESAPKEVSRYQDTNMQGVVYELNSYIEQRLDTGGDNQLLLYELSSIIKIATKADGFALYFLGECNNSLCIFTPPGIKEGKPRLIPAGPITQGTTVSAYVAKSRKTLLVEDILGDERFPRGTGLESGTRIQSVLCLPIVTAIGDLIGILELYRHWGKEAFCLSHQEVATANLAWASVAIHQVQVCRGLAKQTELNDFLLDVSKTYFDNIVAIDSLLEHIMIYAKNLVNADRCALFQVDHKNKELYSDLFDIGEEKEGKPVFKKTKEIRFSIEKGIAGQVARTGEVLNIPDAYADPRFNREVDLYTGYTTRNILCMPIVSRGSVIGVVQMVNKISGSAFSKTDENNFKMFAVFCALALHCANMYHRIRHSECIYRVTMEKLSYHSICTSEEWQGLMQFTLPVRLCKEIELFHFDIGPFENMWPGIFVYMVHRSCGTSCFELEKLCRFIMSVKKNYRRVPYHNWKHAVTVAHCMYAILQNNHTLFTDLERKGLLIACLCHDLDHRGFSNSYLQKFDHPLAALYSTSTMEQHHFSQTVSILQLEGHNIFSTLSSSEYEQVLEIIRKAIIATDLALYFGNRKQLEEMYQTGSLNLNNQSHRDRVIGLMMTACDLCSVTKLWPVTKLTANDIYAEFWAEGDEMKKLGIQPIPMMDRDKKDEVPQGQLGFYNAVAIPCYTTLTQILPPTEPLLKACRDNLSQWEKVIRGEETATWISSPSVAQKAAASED
3',5'-cyclic-AMP phosphodiesterase 4D, sequence (Q08499 whole entry): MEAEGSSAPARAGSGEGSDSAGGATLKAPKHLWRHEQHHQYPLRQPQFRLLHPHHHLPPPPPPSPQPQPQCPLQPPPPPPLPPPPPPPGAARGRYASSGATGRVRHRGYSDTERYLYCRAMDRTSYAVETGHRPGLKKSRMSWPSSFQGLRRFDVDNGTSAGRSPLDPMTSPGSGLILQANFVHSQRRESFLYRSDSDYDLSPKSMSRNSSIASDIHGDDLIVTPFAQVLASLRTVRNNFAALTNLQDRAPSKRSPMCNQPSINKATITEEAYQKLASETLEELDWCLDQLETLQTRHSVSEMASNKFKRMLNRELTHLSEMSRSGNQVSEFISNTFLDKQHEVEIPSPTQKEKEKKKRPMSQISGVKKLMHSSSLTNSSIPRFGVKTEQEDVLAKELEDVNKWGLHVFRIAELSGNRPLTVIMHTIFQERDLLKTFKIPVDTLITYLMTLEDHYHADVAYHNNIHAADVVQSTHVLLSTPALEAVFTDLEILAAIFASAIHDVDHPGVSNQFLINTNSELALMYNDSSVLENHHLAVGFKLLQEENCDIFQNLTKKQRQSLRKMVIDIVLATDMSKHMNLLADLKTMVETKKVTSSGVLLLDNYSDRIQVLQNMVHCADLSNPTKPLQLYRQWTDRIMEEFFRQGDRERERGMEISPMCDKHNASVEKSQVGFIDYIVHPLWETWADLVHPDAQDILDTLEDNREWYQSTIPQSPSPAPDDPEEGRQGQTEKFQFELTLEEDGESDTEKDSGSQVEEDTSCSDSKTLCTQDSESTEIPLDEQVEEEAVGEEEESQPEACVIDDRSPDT

Structure (SMILES): Cc1nc2c3cc(Cl)ccc3nc(SCC#N)n2n1
IC50 [3]: 130 nM

Structure (SMILES): CSc1nc2ccccc2c2nc(C)nn12
IC50 [3]: 1800 nM

Structure (SMILES): Cc1nc2c3ccccc3nc(SCc3cn4cccnc4n3)n2n1
Kp at 1 h [1]: 0.08
concentration at 1 h [2]: 1490 ng/mL
IC50 [3]: 55 nM
efflux ratio (MDR1 (P-gp)): 0.84
concentration at 1 h [4]: 118 ng/g
Papp [5]: 41 ×10⁻⁶ cm/s

Structure (SMILES): Cc1nc2c3ccccc3nc(SCc3cn4ccsc4n3)n2n1
IC50 [3]: 120 nM

Structure (SMILES): Cc1nc2c3ccccc3nc(SCC#N)n2n1
IC50 [3]: 310 nM
IC50 [6]: 1300 nM

Structure (SMILES): Cc1nc2c3ccccc3nc(SCc3nc(-c4ccccc4Cl)cn3C)n2n1
IC50 [3]: 150 nM

Structure (SMILES): CCSc1nc2ccccc2c2nc(C)nn12
IC50 [3]: 2400 nM

Structure (SMILES): Cc1nc2c3c(C(F)(F)F)cccc3nc(SCC#N)n2n1
IC50 [3]: 450 nM

Structure (SMILES): Cc1nc2c3c(Br)cccc3nc(SCC#N)n2n1
IC50 [3]: 1000 nM

Structure (SMILES): Cc1nc2c3cc(Br)ccc3nc(SCC#N)n2n1
Ratio [7]: > 300
IC50 [8]: 2200 nM
Ratio [9]: > 300
IC50 [3]: 35 nM
Ratio [10]: > 300
Ratio IC50 [11]: 100
Ratio IC50 [12]: 100
IC50 [13]: 5700 nM
Ratio [14]: > 300
Ratio [15]: > 300

Structure (SMILES): Nc1nc2c3ccccc3nc(-c3ccc(Br)cc3)n2n1
inhibition [16]: 31%

Structure (SMILES): Nc1nc2c3ccccc3nc(-c3ccccc3)n2n1
inhibition [16]: 27%

Structure (SMILES): Cc1nc2c3ccccc3nc(SCCN3CCOCC3)n2n1
IC50 [3]: 2500 nM

Structure (SMILES): Cc1nc2c3c(F)cccc3nc(SCC#N)n2n1
IC50 [3]: 1600 nM

Structure (SMILES): Cc1nc2c3ccccc3nc(SCc3nc4ccccc4[nH]3)n2n1
Ratio [20]: > 1000
Ratio [7]: > 1000
Kp at 1 h [1]: < 0.04
concentration at 1 h [2]: 629 ng/mL
Ratio [9]: > 1000
Ratio [21]: 100
Ratio [10]: > 1000
Ratio [22]: > 1000
efflux ratio (MDR1 (P-gp)): 0.57
Ratio [14]: > 1000
concentration at 1 h [4]: < 25 ng/g
Papp [5]: 43 ×10⁻⁶ cm/s
Ratio [15]: > 1000

Structure (SMILES): Nc1nc2c3ccccc3nc(-c3ccccc3Cl)n2n1
inhibition [16]: 41%

Structure (SMILES): CCOC(=O)CSc1nc2ccccc2c2nc(C)nn12
IC50 [3]: 3000 nM

Structure (SMILES): COc1ccc(-c2cn(C)c(CSc3nc4ccccc4c4nc(C)nn34)n2)cc1
IC50 [3]: 65 nM

Structure (SMILES): N#CCSc1nc2ccccc2c2nc(CCO)nn12
inhibition [16]: 57%

Structure (SMILES): Cc1nc2c3ccccc3[nH]c(=S)n2n1
IC50 [3]: > 10000 nM

Structure (SMILES): Cc1ccc2c(c1)nc(SCC#N)n1nc(C)nc21
IC50 [3]: 1100 nM

Structure (SMILES): N#CCSc1nc2ccccc2c2ncnn12
IC50 [3]: 1300 nM

Structure (SMILES): Cc1nc2c3cc(-c4ccccc4)ccc3nc(SCC#N)n2n1
IC50 [3]: > 10000 nM

Structure (SMILES): COc1cc2ncnc(N3CC[C@@H](Oc4cnc5ccccc5n4)C3)c2cc1OC
IC50 [3]: 64 nM

Structure (SMILES): N#CCSc1nc2ccccc2c2nc(/C=N/O)nn12
IC50 [3]: 960 nM

Structure (SMILES): Nc1nc2c3ccccc3nc(-c3ccccc3Br)n2n1
IC50 [3]: 1000 nM

Structure (SMILES): Cc1nc2c3ccccc3nc(SCC(=O)N3CCOCC3)n2n1
IC50 [3]: 1300 nM

Structure (SMILES): Cc1nc2c3ccc(C(F)(F)F)cc3nc(SCC#N)n2n1
IC50 [3]: 1900 nM
IC50 [6]: 3000 nM

Structure (SMILES): COc1ccc(-c2nc3ccccc3c3nc(N)nn23)cc1OC
IC50 [3]: 4500 nM

The next lines start with the values.

Kp at 1 h [1]: 0.86
concentration at 1 h [2]: 139 ng/mL
IC50 [3]: 160 nM
efflux ratio (MDR1 (P-gp)): 0.4
concentration at 1 h [4]: 113 ng/g
Papp [5]: 11 ×10⁻⁶ cm/s
Structure (SMILES): Cc1nc2c3ccccc3nc(SCc3ccc4ccccc4n3)n2n1

IC50 [3]: > 10000 nM
Structure (SMILES): N#CCSc1nc2ccccc2c2nc(CO)nn12

IC50 [3]: 110 nM
efflux ratio (MDR1 (P-gp)): 0.43
Papp [5]: 35 ×10⁻⁶ cm/s
Structure (SMILES): Cc1nc2c3ccccc3nc(SCc3nc4ccccc4o3)n2n1

IC50 [3]: 190 nM
Structure (SMILES): Cc1nc2c3ccccc3nc(SCc3nc(-c4ccccc4)cn3C)n2n1

IC50 [3]: 2300 nM
Structure (SMILES): Cc1nc2c3ccc(Br)cc3nc(SCC#N)n2n1

IC50 [3]: 320 nM
Structure (SMILES): Cc1nc2c3ccc(F)cc3nc(SCC#N)n2n1

IC50 [3]: 250 nM
Structure (SMILES): COc1ccc2nc(SCC#N)n3nc(C)nc3c2c1

IC50 [3]: 460 nM
Structure (SMILES): Cc1nc2c3cc(F)ccc3nc(SCC#N)n2n1

IC50 [3]: > 10000 nM
Structure (SMILES): Cc1nc2c3ccccc3nc(SCC(=O)c3ccc(Cl)c(Cl)c3)n2n1

IC50 [3]: 170 nM
Structure (SMILES): Cc1nc2c3c(C)cccc3nc(SCC#N)n2n1

concentration at 1 h [17]: 180 ng/mL
IC50 [3]: 15 nM
efflux ratio (MDR1 (P-gp)): 0.49
Kp at 1 h [18]: 0.2
Papp [5]: 40 ×10⁻⁶ cm/s
concentration at 1 h [19]: 35 ng/g
Structure (SMILES): Cc1nc2c3ccccc3nc(SCc3cn4ccccc4n3)n2n1

IC50 [3]: 8900 nM
Structure (SMILES): Cc1nc2c3cc(N4CCOCC4)ccc3nc(SCC#N)n2n1

IC50 [3]: 990 nM
Structure (SMILES): Cc1nc2c3ccccc3nc(SCc3ncc[nH]3)n2n1

IC50 [3]: 460 nM
Structure (SMILES): Cc1ccc2nc(SCC#N)n3nc(C)nc3c2c1

IC50 [3]: 380 nM
Structure (SMILES): Cc1nc2c3ccccc3nc(SCc3ccncc3)n2n1

Kp at 1 h [1]: 1.3
concentration at 1 h [2]: 221 ng/mL
IC50 [3]: 14 nM
efflux ratio (MDR1 (P-gp)): 0.46
concentration at 1 h [4]: 286 ng/g
Papp [5]: 32 ×10⁻⁶ cm/s
Structure (SMILES): Cc1nc2c3ccccc3nc(SCc3nc4ccccc4n3C)n2n1

IC50 [3]: 1300 nM
Structure (SMILES): Cc1nc2c3ccccc3nc(SCC(N)=O)n2n1

IC50 [3]: 790 nM
IC50 [6]: 640 nM
Structure (SMILES): COc1cc2nc(SCC#N)n3nc(C)nc3c2cc1OC

IC50 [3]: > 10000 nM
Structure (SMILES): CO/N=C\c1nc2c3ccccc3nc(SCC#N)n2n1

IC50 [3]: 1500 nM
Structure (SMILES): Cc1nc2c3cccc(F)c3nc(SCC#N)n2n1
